For 17 compounds, EC50 results are on record in US12479822B2, “AHR agonists” (Eli Lilly and Company, priority 2021, dated 2025).

In this data set the target is T1, Human AHR (Homo sapiens, UniProt P35869).
T1 construct: expressed in transfected cells
T1 sequence (P35869 11-848): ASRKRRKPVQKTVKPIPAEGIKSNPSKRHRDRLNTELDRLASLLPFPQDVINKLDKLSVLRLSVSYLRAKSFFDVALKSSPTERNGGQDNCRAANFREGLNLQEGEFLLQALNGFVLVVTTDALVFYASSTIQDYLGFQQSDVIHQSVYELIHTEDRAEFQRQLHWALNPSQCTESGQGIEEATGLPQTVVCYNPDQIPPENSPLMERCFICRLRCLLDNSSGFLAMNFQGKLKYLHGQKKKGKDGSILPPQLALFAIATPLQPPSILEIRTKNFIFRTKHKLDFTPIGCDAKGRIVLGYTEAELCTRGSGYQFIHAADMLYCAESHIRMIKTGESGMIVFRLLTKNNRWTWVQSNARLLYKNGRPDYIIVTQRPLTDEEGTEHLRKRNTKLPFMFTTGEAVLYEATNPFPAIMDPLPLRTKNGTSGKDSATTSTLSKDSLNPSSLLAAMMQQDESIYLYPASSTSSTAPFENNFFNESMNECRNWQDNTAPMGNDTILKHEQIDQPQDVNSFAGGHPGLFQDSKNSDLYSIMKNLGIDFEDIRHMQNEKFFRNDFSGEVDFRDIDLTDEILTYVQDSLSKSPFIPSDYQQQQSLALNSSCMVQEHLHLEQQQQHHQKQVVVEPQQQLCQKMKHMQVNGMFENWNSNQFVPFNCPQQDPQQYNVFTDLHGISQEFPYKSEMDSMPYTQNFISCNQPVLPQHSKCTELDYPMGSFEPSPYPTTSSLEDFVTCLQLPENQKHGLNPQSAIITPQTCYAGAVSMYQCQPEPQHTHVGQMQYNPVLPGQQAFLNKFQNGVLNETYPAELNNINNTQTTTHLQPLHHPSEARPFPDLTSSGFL
The experiment in a line: hAHR Nuclear Translocation Assay. It is filed as cell-based. The following applies: Jump-In T-REx HEK293 cells expressing AhR-EGFP chimera; 45 minutes incubation; ratio of EGFP fluorescent intensity in nuclear over cytosol; 20-point curve. The procedure:
Stable cell lines were established using Jump-In™ T-REx™ HEK293 Retargeting Kit (Life Technologies). Human AHR cDNA was cloned into the pJTI R4 CMV-TO EGFP vector. The EGFP was cloned to the C-terminal of AHR to form AhR-EGFP chimera. The pJTI R4 CMV-TO AhR-EGFP vector was transfected using FuGENE® HD into Jump-In™ T-REx™ HEK293 cells. Transfected cells were selected using 2.5 mg/ml G418 for 10 to 14 days, then expanded, harvested, and suspended in freeze media (FBS with 8% DMSO) at 2×10^7 cells/ml, and aliquots were stored in liquid nitrogen. […] On the assay date, compound was serially diluted (1:2) into 384-well nunc plates with DMSO using acoustic dispensing (ECHO). The dose response was a 20-point curve. Compound was resuspended in 40 μl of DMEM plus 0.1% BSA. The culture media was damped and 25 μl of DMEM plus 0.1% BSA was added, then 25 μl of compound in DMEM plus 0.1% BSA was added into cell plates. Cells were incubated with compounds at 37° C. and 5% CO2 for 45 minutes. The final DMSO concentration was 0.2%. The media was damped after 45 minutes of incubation. The cells were fixed with 40 μl of cold methanol (−20° C.) for 20 minutes. The methanol was damped and 50 μl of DPBS containing 1 μg/ml Hochst was added into the cell plates. The intensity of EGFP was quantitated by using OPERA PHENIX® or Operetta™ high content image system (Perkin Elmer) with 20× Water Objective and five field per well. The ratio of EGFP fluorescent intensity in nuclear over cytosol was analyzed using a 4-parameter nonlinear logistic equation to determine the potency of AHR agonists.

Structures can show the parent of a compound that is named as a salt.

As usually defined, the EC50 is the midpoint of the concentration-response curve. With `Cn1c(=O)c(C(=O)Nc2ccccc2)cc2cc(OCCO)ccc21` [Example 58, 6-(2-Hydroxyethoxy)-1-methyl-2-oxo-N-phenyl-quinoline-3-carboxamide], the EC50 was determined as 7.45 nM.

Turning to `COc1ccc(NC(=O)c2cc3ccc(N(C)C)cc3n(C)c2=O)cc1` [Example 47, 7-(Dimethylamino)-N-(4-methoxyphenyl)-1-methyl-2-oxo-quinoline-3-carboxamide], the concentration for a half-maximal effect (EC50) is 18 nM.

As for `Cn1c(=O)c(C(=O)Nc2ccccn2)cc2cc(OCCO)ccc21` [Example 59, 6-(2-Hydroxyethoxy)-1-methyl-2-oxo-N-(2-pyridyl)quinoline-3-carboxamide], the EC50 came out at 19.2 nM.

Regarding `Cc1ccc(NC(=O)c2cc3cccc4c3n(c2=O)CC4)nc1` [Example 41, N-(5-Methyl-2-pyridyl)-11-oxo-1-azatricyclo[6.3.1.04, 12]dodeca-4(12),5,7,9-tetraene-10-carboxamide], the concentration for a half-maximal effect (EC50) was found to be 6.24 nM.

Turning to `COc1cnc(NC(=O)c2cc3ccccc3n(C)c2=O)cn1` [Example 16, N-(5-Methoxypyrazin-2-yl)-1-methyl-2-oxo-quinoline-3-carboxamide], the concentration giving a half-maximal response (EC50) was 1.09 nM.

Take `COc1ccc(NC(=O)c2cc3cccnc3n(C)c2=O)cc1` [Example 35, N-(4-Methoxyphenyl)-1-methyl-2-oxo-1,8-naphthyridine-3-carboxamide]: the concentration for a half-maximal effect (EC50) amounted to 2.29 nM.

`O=C(Nc1ccccc1)c1cc2ccccc2[nH]c1=O` [Example 34, 2-Oxo-N-phenyl-1H-quinoline-3-carboxamide]: the EC50 came out at 9.04 nM.

For the compound `O=C(Nc1ncccn1)c1cc2cccc3c2n(c1=O)CC3` [Example 38, 11-Oxo-N-pyrimidin-2-yl-1-azatricyclo[6.3.1.04,12]dodeca-4(12),5,7,9-tetraene-10-carboxamide], the concentration giving a half-maximal response (EC50) is 6.34 nM.

For the compound `CNc1ccc2cc(C(=O)Nc3ccc(OC)cc3)c(=O)n(C)c2c1` [Example 46, N-(4-Methoxyphenyl)-1-methyl-7-(methylamino)-2-oxo-quinoline-3-carboxamide], the EC50 came to 2.21 nM.

`Cn1cc(NC(=O)c2cc3ccccc3n(C)c2=O)cn1` [Example 27, hydrochloride]: the EC50 stood at 10.6 nM.

Take `COc1ccc(NC(=O)c2cc3cccc4c3n(c2=O)CC4)cc1` [Example 26, N-(4-Methoxyphenyl)-11-oxo-1-azatricyclo[6.3.1.04,12]dodeca-4(12),5,7,9-tetraene-10-carboxamide]: the concentration for a half-maximal effect (EC50) amounted to 0.701 nM.

Take `Cc1ccc(NC(=O)c2cc3ccccc3n(C)c2=O)cc1` [Example 5, 1-Methyl-2-oxo-N-(p-tolyl) quinoline-3-carboxamide]: the concentration giving a half-maximal response (EC50) is 0.0971 nM.

Regarding `Cn1c(=O)c(C(=O)Nc2ccc(C#N)nc2)cc2ccccc21` [Example 24, N-(6-Cyano-3-pyridyl)-1-methyl-2-oxo-quinoline-3-carboxamide], the EC50 came out at 7.36 nM.

With `CN(C)CCNc1cccc2cc(C(=O)Nc3ccccc3)c(=O)n(C)c12` [Example 50, 8-[2-(Dimethylamino)ethylamino]-1-methyl-2-oxo-N-phenyl-quinoline-3-carboxamide], the concentration for a half-maximal effect (EC50) is 26.8 nM.

Consider `COc1ccc(NC(=O)c2cc3cccc4c3n(c2=O)CCC4)cc1` [Example 25, N-(4-Methoxyphenyl)-2-oxo-1-azatricyclo[7.3.1.05,13]trideca-3,5,7,9(13)-tetraene-3-carboxamide], for which the concentration giving a half-maximal response (EC50) was found to be 2.57 nM.

Consider `CN(C)CCNc1cccc2c1cc(C(=O)Nc1ncc(C(F)(F)F)cn1)c(=O)n2C` [Example 54, 5-[2-(Dimethylamino)ethylamino]-1-methyl-2-oxo-N-[5-(trifluoromethyl)pyrimidin-2-yl]quinoline-3-carboxamide], for which the EC50 was determined as 18.3 nM.

`Cn1c(=O)c(C(=O)Nc2ccccn2)cc2ccccc21` [Example 9, 1-Methyl-2-oxo-N-(2-pyridyl)quinoline-3-carboxamide]: the concentration giving a half-maximal response (EC50) was 0.613 nM.
